Reference: ChEMBL document CHEMBL2086378, “Eudesmane-type sesquiterpenoid and guaianolides from Kandelia candel in a screening program for compounds to overcome TRAIL resistance” (2012)

Legend:
Assay type in all cases: functional
AGS [1] = assay: Cytotoxicity against TRAIL-resistant human AGS cells assessed as inhibition of cell viability at 80 uM after 24 hrs by fluorescence assay in presence of 100 ng/ml TRAIL relative to in absence of TRAIL
AGS [2] = assay: Cytotoxicity against TRAIL-resistant human AGS cells assessed as inhibition of cell viability at 50 uM after 24 hrs by fluorescence assay in presence of 100 ng/ml TRAIL relative to in absence of TRAIL
AGS [3] = assay: Cytotoxicity against TRAIL-resistant human AGS cells assessed as inhibition of cell viability at 17.5 uM after 24 hrs by fluorescence assay in presence of 100 ng/ml TRAIL relative to in absence of TRAIL
AGS [4] = assay: Cytotoxicity against TRAIL-resistant human AGS cells assessed as inhibition of cell viability at 10 uM after 24 hrs by fluorescence assay in presence of 100 ng/ml TRAIL relative to in absence of TRAIL

## C=C(C(=O)OC)[C@@H]1CC[C@@]2(C)C=CC(=O)C(C)=C2C1
AGS [1]
  inhibition (INH): 29%

## CC(=O)O[C@H]1CC(C)=C2C(=O)C=C(C)[C@@H]2[C@H]2OC(=O)[C@@H](C)[C@@H]21
AGS [2]
  inhibition (INH): 23%

## O=c1cc(-c2ccc(O)c(O)c2)oc2cc(O)cc(O)c12 [LUTEOLIN]
AGS [3]
  inhibition (INH): 48%

## C/C=C(\C)C(=O)O[C@H]1CC(C)=C2C(=O)C=C(C)[C@@H]2[C@H]2OC(=O)[C@@H](C)[C@@H]21 [MEHIRUGIN B]
AGS [4]
  inhibition (INH): 27%
